Laboratory results: ChEMBL document CHEMBL1123852, “Synthesis and structure-activity studies of corticosteroid 17-heterocyclic aromatic esters. 1. 9 alpha, 11 beta-dichloro series” (1987)

Key:
Mus musculus [1] = species: Mus musculus; experiment: Antiinflammatory potency to betamethasone 17-valerate measured in mice using 5 hr Tonelli croton oil ear test.; type: functional
Mus musculus [2] = species: Mus musculus; experiment: Antiinflammatory potency to betamethasone 17-valerate measured in mice using 5 day Tonelli croton oil ear test.; type: functional

CC(=O)OCC(=O)[C@@]1(OC(=O)c2cccn2C)C(C)CC2C3CCC4=CC(=O)C=CC4(C)[C@@]3(Cl)C(Cl)CC21C (some centres undefined)
Topical potency (Mus musculus [1]): 1.1

CC1CC2C3C[C@H](F)C4=CC(=O)C=CC4(C)[C@@]3(Cl)C(Cl)CC2(C)[C@@]1(OC(=O)c1ccco1)C(=O)CCl (some centres undefined)
Topical potency (Mus musculus [2]): 3
Topical potency (Mus musculus [1]): 2.5

C[C@H]1CC2C3CCC4=CC(=O)C=C[C@]4(C)[C@@]3(Cl)C(Cl)C[C@]2(C)[C@@]1(OC(=O)c1ccco1)C(=O)CCl (some centres undefined)
Topical potency (Mus musculus [2]): 0.8
Topical potency (Mus musculus [1]): 1.2

CC(=O)OCC(=O)[C@@]1(OC(=O)c2ccco2)[C@H](C)CC2C3CCC4=CC(=O)C=C[C@]4(C)[C@@]3(Cl)C(Cl)C[C@@]21C (some centres undefined)
Topical potency (Mus musculus [2]): 1.2
Topical potency (Mus musculus [1]): 1.4

CC(=O)OCC(=O)[C@@]1(OC(=O)c2ccoc2)C(C)CC2C3CCC4=CC(=O)C=CC4(C)[C@@]3(Cl)C(Cl)CC21C (some centres undefined)
Topical potency (Mus musculus [2]): 1.4
Topical potency (Mus musculus [1]): 1.3

CC(=O)OCC(=O)[C@@]1(OC(=O)c2ccc(Br)o2)C(C)CC2C3CCC4=CC(=O)C=CC4(C)[C@@]3(Cl)C(Cl)CC21C (some centres undefined)
Topical potency (Mus musculus [1]): 0.6

C[C@@H]1CC2C3CCC4=CC(=O)C=C[C@]4(C)[C@@]3(Cl)C(Cl)C[C@]2(C)[C@@]1(OC(=O)c1ccco1)C(=O)CCl (some centres undefined)
Topical potency (Mus musculus [2]): 8.2
Topical potency (Mus musculus [1]): 1.9

CCCC(=O)OCC(=O)[C@@]1(OC(=O)c2ccco2)C(C)CC2C3CCC4=CC(=O)C=CC4(C)[C@@]3(Cl)C(Cl)CC21C (some centres undefined)
Topical potency (Mus musculus [1]): 1

CC(=O)OCC(=O)[C@@]1(OC(=O)c2ccsc2)C(C)CC2C3CCC4=CC(=O)C=CC4(C)[C@@]3(Cl)C(Cl)CC21C (some centres undefined)
Topical potency (Mus musculus [2]): 3.2
Topical potency (Mus musculus [1]): 0.9

COCC(=O)OCC(=O)[C@@]1(OC(=O)c2ccco2)C(C)CC2C3CCC4=CC(=O)C=CC4(C)[C@@]3(Cl)C(Cl)CC21C (some centres undefined)
Topical potency (Mus musculus [2]): 3
Topical potency (Mus musculus [1]): 1

CC1CC2C3CCC4=CC(=O)C=CC4(C)[C@@]3(Cl)C(Cl)CC2(C)[C@@]1(OC(=O)c1ccoc1)C(=O)CCl (some centres undefined)
Topical potency (Mus musculus [2]): 1.7
Topical potency (Mus musculus [1]): 1

CC1CC2C3CCC4=CC(=O)C=CC4(C)[C@@]3(Cl)C(Cl)CC2(C)[C@@]1(OC(=O)c1ccco1)C(=O)CO (some centres undefined)
Topical potency (Mus musculus [1]): 0.8

CC(=O)OCC(=O)[C@@]1(OC(=O)c2ccc(C)s2)C(C)CC2C3CCC4=CC(=O)C=CC4(C)[C@@]3(Cl)C(Cl)CC21C (some centres undefined)
Topical potency (Mus musculus [2]): 0.56
Topical potency (Mus musculus [1]): 1.2

CC1CC2C3CCC4=CC(=O)C=CC4(C)[C@@]3(Cl)C(Cl)CC2(C)[C@@]1(OC(=O)c1ccoc1)C(=O)CO (some centres undefined)
Topical potency (Mus musculus [1]): 0.7

CC1CC2C3CCC4=CC(=O)C=CC4(C)[C@@]3(Cl)C(Cl)CC2(C)[C@@]1(OC(=O)c1cccs1)C(=O)CCl (some centres undefined)
Topical potency (Mus musculus [2]): 3.3
Topical potency (Mus musculus [1]): 0.7

CCCCC(=O)O[C@]1(C(=O)CO)[C@@H](C)C[C@H]2[C@@H]3CCC4=CC(=O)C=C[C@]4(C)[C@@]3(F)[C@@H](O)C[C@@]21C [BETAMETHASONE VALERATE]
Topical potency (Mus musculus [2]): 1
Topical potency (Mus musculus [1]): 1

CC(=O)OCC(=O)[C@@]1(OC(=O)c2cccs2)C(C)CC2C3CCC4=CC(=O)C=CC4(C)[C@@]3(Cl)C(Cl)CC21C (some centres undefined)
Topical potency (Mus musculus [2]): 0.8
Topical potency (Mus musculus [1]): 1.3

CC(=O)OCC(=O)[C@@]1(OC(=O)c2ccco2)[C@@H](C)CC2C3CCC4=CC(=O)C=C[C@]4(C)[C@@]3(Cl)C(Cl)C[C@@]21C (some centres undefined)
Topical potency (Mus musculus [2]): 1.7
Topical potency (Mus musculus [1]): 1.3

CC(=O)OCC(=O)[C@@]1(OC(=O)c2ccco2)C(C)CC2C3C[C@H](F)C4=CC(=O)C=CC4(C)[C@@]3(Cl)C(Cl)CC21C (some centres undefined)
Topical potency (Mus musculus [2]): 1.8
Topical potency (Mus musculus [1]): 3.3

CC1CC2C3CCC4=CC(=O)C=CC4(C)[C@@]3(Cl)C(Cl)CC2(C)[C@@]1(OC(=O)c1cccs1)C(=O)CO (some centres undefined)
Topical potency (Mus musculus [1]): 0.8

CCC(=O)OCC(=O)[C@@]1(OC(=O)c2ccco2)C(C)CC2C3CCC4=CC(=O)C=CC4(C)[C@@]3(Cl)C(Cl)CC21C (some centres undefined)
Topical potency (Mus musculus [2]): 0.9
Topical potency (Mus musculus [1]): 1.1

CC(=O)OCC(=O)[C@@]1(OC(=O)c2cnc3ccccc3n2)C(C)CC2C3CCC4=CC(=O)C=CC4(C)[C@@]3(Cl)C(Cl)CC21C (some centres undefined)
Topical potency (Mus musculus [1]): 0.3

CC1CC2C3CCC4=CC(=O)C=CC4(C)[C@@]3(Cl)C(Cl)CC2(C)[C@@]1(OC(=O)c1ccco1)C(=O)CF (some centres undefined)
Topical potency (Mus musculus [2]): 4
Topical potency (Mus musculus [1]): 1.8
